Assay [1] is described as follows: inhibitors of intracellular T. cruzi replication, confirmation, NIH3T3 host cells, beta-gal luminescence (AID 2044).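 Also: intracellular parasites grown in NIH/3T3 mouse fibroblasts as host cells; luminescent beta-galactosidase reporter signal from transgenic T. cruzi replicating inside host cells; inhibitors lower the luminescence signal.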 Type of assay: functional, cell-based.
In a further assay the target is T1, Streptokinase A (Streptococcus pyogenes serotype M1, UniProt P10520).
T1 sequence (P10520 whole entry): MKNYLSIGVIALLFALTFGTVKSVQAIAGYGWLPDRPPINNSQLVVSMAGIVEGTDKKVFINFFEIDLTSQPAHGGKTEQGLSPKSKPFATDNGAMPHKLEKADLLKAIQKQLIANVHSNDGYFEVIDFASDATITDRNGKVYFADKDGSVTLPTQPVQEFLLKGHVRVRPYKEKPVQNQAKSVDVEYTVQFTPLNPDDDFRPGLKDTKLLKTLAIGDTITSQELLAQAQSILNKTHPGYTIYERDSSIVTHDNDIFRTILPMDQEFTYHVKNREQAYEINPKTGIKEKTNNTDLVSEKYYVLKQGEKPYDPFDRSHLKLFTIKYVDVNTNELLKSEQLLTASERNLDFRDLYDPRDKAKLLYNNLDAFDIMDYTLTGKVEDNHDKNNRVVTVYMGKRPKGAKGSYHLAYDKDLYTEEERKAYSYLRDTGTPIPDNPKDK
As to the kind of experiment: S. pyogenes streptokinase expression inhibitors, potency, dose response, plasminogen activation absorbance, OD405 (AID 1914).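 Also: secreted streptokinase activity via plasminogen activation per viability signal from cell pellet.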 It is filed as functional, Streptococcus pyogenes M1 GAS.

The subject of assay [2] is Streptococcus sp. 'group A'. Nature of the assay: growth inhibition of control SK(-) GAS strain, dose response, counter-screen for streptokinase expression inhibitor project, luminescence, kanamycin, BacTiterGlo, confirmation (AID 1900). Type of assay: functional, organism-based. (In general: A counterscreen serves to expose hits that act by an unwanted route or on another target.)

A short description of assay [3]: cytotoxicity toward NIH3T3 fibroblasts, dose response, counter-screen, cell-based, ATP luminescence, mouse fibroblasts (AID 2010).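 Also: cells exposed to compound for about 90 hours before reading.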 It is filed as functional.
A short description of assay [4]: Luminescence Cell-Based Dose Retest to Confirm Inhibitors of Cancer Stem Cells. [Related pubchem assays (depositor defined):AID2717, AID2721]. It is filed as functional. As to conditions: Homo sapiens.
Assay [5] concerns the target Disintegrin and metalloproteinase domain-containing protein 17 (Homo sapiens, UniProt P78536). Nature of the assay: ADAM17 protease inhibitors, dose response, counter-screen for ADAM10 exosite inhibitor project, biochemical, quenched FRET substrate (AID 743253).
Another assay deals with Streptococcus. As to the kind of experiment: Group A Streptococcus viability loss, dose response, counter-screen for streptokinase expression inhibitor project, luminescence, BacTiterGlo (AID 1915).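 Also: potency for reduction of bacterial viability or growth.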 Type of assay: functional, organism-based.
Assay [6] in a line: NIH/3T3 fibroblast cytotoxicity, dose response, cytotoxicity control, cell-based, plate reader, dry powder, set 2 (AID 652280). As to conditions: NIH3T3. It is filed as functional.
A short description of assay [7]: T. cruzi growth inhibition in host cells, dose response, cell-based, plate reader, dry powder, set 2 (AID 652275). It is filed as functional.
Assay [8] is described as follows: inhibitors of non-replicating M. tuberculosis, dose response, luciferase, dry powder (AID 651620). The settings on record: Mycobacterium tuberculosis. Type of assay: functional.
Assay [9] in a line: inhibitors of non-replicating M. tuberculosis, dose response, luciferase, dry powder (AID 651619). Type of assay: functional. As to conditions: Mycobacterium tuberculosis.
A short description of assay [10]: Late stage assay provider results from the probe development effort to identify inhibitors of the Plasmodium falciparum M18 Aspartyl Aminopeptidase (M18AAP): radiolabel-based cell-based dose response assay to identify compounds that inhibit P. falciparum growth in RBCs, Set 2.. Type of assay: functional.
The nature of assay [11]: A375 melanoma cell viability loss, dose response, counter-screen for MITF inhibitor project, CellTiter-Glo luminescence, dry powder, set 4 (AID 624364).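 Also: A375 melanoma cells are MITF independent so this is a counter screen.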 Type of assay: functional, cell-based. As to conditions: A-375.

The source made the active and inactive calls.

Sequence of Disintegrin and metalloproteinase domain-containing protein 17 (P78536 whole entry, the tested form may be a part): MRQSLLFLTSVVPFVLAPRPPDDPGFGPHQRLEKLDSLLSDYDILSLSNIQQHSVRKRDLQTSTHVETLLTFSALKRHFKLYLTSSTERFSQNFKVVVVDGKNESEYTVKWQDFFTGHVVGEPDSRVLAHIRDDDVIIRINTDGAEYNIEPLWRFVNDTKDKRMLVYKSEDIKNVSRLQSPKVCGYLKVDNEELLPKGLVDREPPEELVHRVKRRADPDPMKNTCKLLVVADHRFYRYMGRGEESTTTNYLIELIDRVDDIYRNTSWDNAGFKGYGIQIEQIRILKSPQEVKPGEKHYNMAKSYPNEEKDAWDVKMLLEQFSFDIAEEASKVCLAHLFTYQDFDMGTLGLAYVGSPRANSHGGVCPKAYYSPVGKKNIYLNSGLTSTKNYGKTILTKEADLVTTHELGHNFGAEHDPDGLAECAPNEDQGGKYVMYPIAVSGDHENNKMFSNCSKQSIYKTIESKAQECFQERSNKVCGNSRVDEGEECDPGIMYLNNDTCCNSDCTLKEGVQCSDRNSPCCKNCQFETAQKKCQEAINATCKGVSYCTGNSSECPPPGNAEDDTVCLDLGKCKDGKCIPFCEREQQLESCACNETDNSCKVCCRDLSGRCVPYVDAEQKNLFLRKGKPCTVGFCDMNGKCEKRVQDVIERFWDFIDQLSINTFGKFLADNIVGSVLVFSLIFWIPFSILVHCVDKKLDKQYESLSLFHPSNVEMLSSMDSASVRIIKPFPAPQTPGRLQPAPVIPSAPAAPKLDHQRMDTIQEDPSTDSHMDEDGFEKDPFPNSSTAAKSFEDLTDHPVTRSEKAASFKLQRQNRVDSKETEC

Take `O=C(Nc1cccc(S(=O)(=O)Nc2ccc(Cl)cc2)c1)c1cc2c(s1)CCCC2`: the EC50 is 1.09 µM (active) in assay [1]; 5.01 µM (active) at Streptokinase A; 2.51 µM (active) in [2]; 10.9 µM (active) in assay [3]; 1.98 µM (active) in the assay with Streptococcus. In addition, the AC50 in [4] is 2.28 µM (active). The IC50 in [5] was > 69.5 µM (inactive).
In the case of `CC(C)(C)[S@@+]([O-])N1Cc2cc(C(=O)NCc3ccc4c(c3)OCO4)nc(-c3cccc(-c4ccncc4)c3)c2[C@H]1CCO`, the AC50 is 8.56 µM (active) in assay [6] and 0.341 µM (active) in [7].
Regarding `[N-]=[N+]=NCCOCCNC(=O)c1ccc(C[S+]([O-])c2nnc(-c3ccc(Cl)cc3)o2)nc1` (stereo not drawn), the IC90 in assay [8] and in assay [9] was 16 µM (active) each time.
Turning to `COc1ccc(CCNc2cncc3ccccc23)cc1OC`, the IC50 in assay [10] is 4.5 µM (active).
As for `C=CCNC1=C(NC(=O)c2ccccc2)C(=O)c2ccccc2C1=O`, the AC50 in [11] was > 70 µM (inactive).

Usually EC50 stands for the concentration that produces a half-maximal response. By AC50 is commonly meant the concentration giving half of the maximal activity seen. The term IC50 denotes the midpoint of a concentration-inhibition curve. As a reminder, the IC90 is the concentration at which the effect reaches the 90% level.
